Molecules are shown by their SMILES.

The target of this experiment is T1, EP2 receptor (Homo sapiens, UniProt P43116).
T1 construct: expressed in transfected cells; host or cells: CHO-K1 cells (ATCC), transient transfection with FuGENE 6
T1 sequence (P43116 whole entry): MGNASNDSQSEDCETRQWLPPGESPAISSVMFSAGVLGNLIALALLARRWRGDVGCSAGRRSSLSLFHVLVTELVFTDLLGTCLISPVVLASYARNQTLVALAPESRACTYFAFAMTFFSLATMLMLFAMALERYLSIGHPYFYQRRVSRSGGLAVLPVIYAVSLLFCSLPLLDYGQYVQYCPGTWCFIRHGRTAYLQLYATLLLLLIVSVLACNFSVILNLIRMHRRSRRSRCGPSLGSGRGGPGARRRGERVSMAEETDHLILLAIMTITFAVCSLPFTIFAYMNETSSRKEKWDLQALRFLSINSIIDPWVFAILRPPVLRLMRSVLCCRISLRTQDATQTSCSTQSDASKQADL
As to the kind of experiment: EP2 potency assay (cAMP TR-FRET, LANCE Ultra cAMP kit) in transfected CHO-K1 cells stimulated with PGE2 at EC80. The class given is cell-based. The settings on record: Table (V), EP2 antagonism, CHO-K1 cells expressing EP2, PGE2 at EC80. The method, then:
Compound potency was measured using a cAMP TR-FRET assay. CHO-K1 cells (ATCC) were seeded at a density of 9.75×105 in 6 cm plates, and then on the following day cell media was changed to Opti-Mem I reduced serum media (Gibco), and transfected with a plasmid for expression of the EP2 receptor (the target receptor of interest), using the FuGENE 6 Transfection reagent (Promega). After 6 hours incubation, the cell media was replaced with F12 medium supplemented with 10% FBS and 100 U/ml Pen-Strep. 24 hours after transfection, cells were harvested and seeded at a density of 3000 cells/well in a 384 well plate to perform the cAMP assay, using the LANCE Ultra cAMP assay kit (PerkinElmer). For each test compound of interest, 10 nl/well of serially diluted test compound was added to each well, resulting in a range of 10 serially diluted compound concentrations from 10000 nM to 0.038 nM, with duplicate wells for each concentration. Plates were then centrifuged at 1000 rpm for 1 min, agitated at 600 rpm at R.T. for 2 min, and incubated at 25° C. for 5 min. The reference agonist, prostaglandin E2 (MCE), was added to each well at the appropriate concentration to reach its EC80 value. Plates were then centrifuged at 1000 rpm for 1 min, agitated at 600 rpm at R.T. for 2 min, and incubated at 25° C. for 30 min. To measure levels of cAMP, 5 μl/well of Eu-cAMP working solution and 5 μl/well of Ulight-anti-cAMP working solution were added to each well, and the plate was centrifuged at 1000 rpm for 1 min, agitated at 600 rpm at R.T. for 2 min, and incubated at 25° C. for 15 min. Levels of TR-FRET fluorescence were measured in each well using an EnVision microplate reader (excitation wavelength=337 nm and emission wavelength=615 and 665 nm). A dose-response curve was prepared by plotting percent inhibition for each compound concentration, and then IC50 was calculated by fitting a curve to the plotted values and extrapolating the IC50 concentration. […] Potency data is grouped into categories of AA (IC50<100 nM); A (IC50=100 to 500 nM); B (IC50=500 nM to […]); C (IC50=1 μM to 5 μM); and D (IC50>5 μM).
What is called IC50 is the concentration that gives 50% inhibition. A high value points to weaker potency. `Fc1ccc2c(ccn2-c2cc(Cl)c3c(c2)CN(Cc2cnc(C4CC4)nc2)CCO3)c1` [II-21, 9-chloro-4-((2-cyclopropylpyrimidin-5-yl)methyl)-7-(5-fluoro-1H-indol-1-yl)-2,3,4,5-tetrahydrobenzo[f][1,4]oxazepine] displayed an IC50 of 0.5 to 1 µM.

`Fc1ccc2c(ccn2-c2cc(Cl)c3c(c2)CN(Cc2cnc(-c4nnn[nH]4)nc2)CCO3)c1` [II-22, 4-((2-(1H-tetrazol-5-yl)pyrimidin-5-yl)methyl)-9-chloro-7-(5-fluoro-1H-indol-1-yl)-2,3,4,5-tetrahydrobenzo[f][1,4]oxazepine]: the concentration for half-maximal inhibition (IC50) is under 0.1 µM.

Take `Nc1cc(CN2CCOc3c(Cl)cc(-n4ccc5cc(F)ccc54)cc3C2)cnn1` [II-23, 5-((9-chloro-7-(5-fluoro-1H-indol-1-yl)-2,3-dihydrobenzo[f][1,4]oxazepin-4(5H)-yl)methyl)pyridazin-3-amine]: the IC50 lay in the range of 0.5 to 1 µM.

`Cc1nc(=O)[nH]c(C)c1CN1CCOc2c(Cl)cc(-n3ccc4cc(F)ccc43)cc2C1` [II-24, 5-((9-chloro-7-(5-fluoro-1H-indol-1-yl)-2,3-dihydrobenzo[f][1,4]oxazepin-4(5H)-yl)methyl)-4,6-dimethylpyrimidin-2(1H)-one] displayed a half-maximal inhibitory concentration (IC50) of 0.5 to 1 µM.

`CS(=O)(=O)NC(=O)c1ncc(CN2CCOc3c(Cl)cc(-n4ccc5cc(F)ccc54)cc3C2)cn1` [II-25, 5-((9-chloro-7-(5-fluoro-1H-indol-1-yl)-2,3-dihydrobenzo[f][1,4]oxazepin-4(5H)-yl)methyl)-N-(methylsulfonyl)pyrimidine-2-carboxamide] came in with a 50% inhibitory concentration (IC50) of under 0.1 µM.

`Fc1ccc2c(ccn2-c2cc(Cl)c3c(c2)CN(Cc2cnc(C4=NCCN4)nc2)CCO3)c1` [II-26, 9-chloro-4-((2-(4,5-dihydro-1H-imidazol-2-yl)pyrimidin-5-yl)methyl)-7-(5-fluoro-1H-indol-1-yl)-2,3,4,5-tetrahydrobenzo[f][1,4]oxazepine] gave an IC50 of over 5 µM.

For the molecule `Fc1ccc2c(ccn2-c2cc(Cl)c3c(c2)CN(Cc2cnc4[nH]ccc4c2)CCO3)c1` [II-27, 4-((1H-pyrrolo[2,3-b]pyridin-5-yl)methyl)-9-chloro-7-(5-fluoro-1H-indol-1-yl)-2,3,4,5-tetrahydrobenzo[f][1,4]oxazepine], the 50% inhibitory concentration (IC50) fell in the range of 0.1 to 0.5 µM.

Molecule `Cc1nc(Cl)nc(C)c1CN1CCOc2c(Cl)cc(-n3ccc4cc(F)ccc43)cc2C1` [II-28, 9-chloro-4-((2-chloro-4,6-dimethylpyrimidin-5-yl)methyl)-7-(5-fluoro-1H-indol-1-yl)-2,3,4,5-tetrahydrobenzo[f][1,4]oxazepine] gave an IC50 of 1 to 5 µM.

`COc1ncncc1CN1CCOc2c(Cl)cc(-n3ccc4cc(F)ccc43)cc2C1` [II-29, 9-chloro-7-(5-fluoro-1H-indol-1-yl)-4-((4-methoxypyrimidin-5-yl)methyl)-2,3,4,5-tetrahydrobenzo[f][1,4]oxazepine] showed an IC50 of 0.5 to 1 µM.

As for `Fc1ccc2c(ccn2-c2cc(Cl)c3c(c2)CN(Cc2cnc4[nH]ncc4c2)CCO3)c1` [II-31, 4-((1H-pyrazolo[3,4-b]pyridin-5-yl)methyl)-9-chloro-7-(5-fluoro-1H-indol-1-yl)-2,3,4,5-tetrahydrobenzo[f][1,4]oxazepine], the IC50 lay in the range of 1 to 5 µM.

Molecule `Cn1ncc(CN2CCOc3c(Cl)cc(-n4ccc5cc(F)ccc54)cc3C2)cc1=O` [II-32, 5-((9-chloro-7-(5-fluoro-1H-indol-1-yl)-2,3-dihydrobenzo[f][1,4]oxazepin-4(5H)-yl)methyl)-2-methylpyridazin-3(2H)-one] registered an IC50 of 0.1 to 0.5 µM.

In turn, `COc1ncc(CN2CCOc3c(Cl)cc(-n4ncc5cc(F)ccc54)cc3C2)cn1` [II-33, 9-chloro-7-(5-fluoro-1H-indazol-1-yl)-4-((2-methoxypyrimidin-5-yl)methyl)-2,3,4,5-tetrahydrobenzo[f][1,4]oxazepine] returned an IC50 of under 0.1 µM.

On to `Nc1ncc(CN2CCOc3c(Cl)cc(-n4ccc5c(F)c(F)ccc54)cc3C2)cn1` [II-36, 5-((9-chloro-7-(4,5-difluoro-1H-indol-1-yl)-2,3-dihydrobenzo[f][1,4]oxazepin-4(5H)-yl)methyl)pyrimidin-2-amine], for which the half-maximal inhibitory concentration (IC50) was under 0.1 µM.

In turn, `O=c1ncc(CN2CCOc3c(Cl)cc(-c4coc5cc(F)ccc45)cc3C2)c[nH]1` [II-38, 5-((9-chloro-7-(6-fluorobenzofuran-3-yl)-2,3-dihydrobenzo[f][1,4]oxazepin-4(5H)-yl)methyl)pyrimidin-2(1H)-one] came in with an IC50 of under 0.1 µM.

Consider `COc1ncc(CN2CCOc3c(Cl)cc(-c4coc5c(F)c(F)ccc45)cc3C2)cn1` [II-39, 9-chloro-7-(6,7-difluorobenzofuran-3-yl)-4-((2-methoxypyrimidin-5-yl)methyl)-2,3,4,5-tetrahydrobenzo[f][1,4]oxazepine], for which the IC50 fell in the range of 0.1 to 0.5 µM.

Take `O=C(O)c1ncc(CN2CCOc3c(Cl)cc(-n4ccc5c(F)c(F)ccc54)cc3C2)cn1` [II-41, 5-((9-chloro-7-(4,5-difluoro-1H-indol-1-yl)-2,3-dihydrobenzo[f][1,4]oxazepin-4(5H)-yl)methyl)pyrimidine-2-carboxylic acid]: the IC50 is under 0.1 µM.

For `Fc1ccc2c(ccn2-c2cc(Cl)c3c(c2)CN(Cc2cnc(-c4nnn[nH]4)nc2)CCO3)c1F` [II-42, 4-((2-(1H-tetrazol-5-yl)pyrimidin-5-yl)methyl)-9-chloro-7-(4,5-difluoro-1H-indol-1-yl)-2,3,4,5-tetrahydrobenzo[f][1,4]oxazepine], the IC50 is under 0.1 µM.

In turn, `Fc1ccc2c(-c3cc(Cl)c4c(c3)CN(Cc3cnc(-c5nnn[nH]5)nc3)CCO4)coc2c1` [II-43, 4-((2-(1H-tetrazol-5-yl)pyrimidin-5-yl)methyl)-9-chloro-7-(6-fluorobenzofuran-3-yl)-2,3,4,5-tetrahydrobenzo[f][1,4]oxazepine] came in with an IC50 of under 0.1 µM.

`O=c1ncc(CN2CCOc3c(Cl)cc(-n4ncc5cc(F)ccc54)cc3C2)c[nH]1` [II-44, 5-((9-chloro-7-(5-fluoro-1H-indazol-1-yl)-2,3-dihydrobenzofuran[f][1,4]oxazepin-4(5H)-yl)methyl)pyrimidin-2(1H)-one]: the IC50 is under 0.1 µM.

The molecule `COc1ncc(CN2CCOc3c(Cl)cc(-c4csc5cc(F)ccc45)cc3C2)cn1` [II-46, 9-chloro-7-(6-fluorobenzo[b]thiophen-3-yl)-4-((2-methoxypyrimidin-5-yl)methyl)-2,3,4,5-tetrahydrobenzo[f][1,4]oxazepine] came in with an IC50 of 0.1 to 0.5 µM.

Molecule `O=c1ncc(CN2CCOc3c(Cl)cc(-c4csc5cc(F)ccc45)cc3C2)c[nH]1` [II-47, 5-((9-chloro-7-(6-fluorobenzo[b]thiophen-3-yl)-2,3-dihydrobenzo[f][1,4]oxazepin-4(5H)-yl)methyl)pyrimidin-2(1H)-one] displayed a half-maximal inhibitory concentration (IC50) of under 0.1 µM.

As for `COc1ncc(CN2CCOc3c(Cl)cc(-c4coc5cc(F)ccc45)cc3C2)cn1` [II-48, 9-chloro-7-(6-fluorobenzofuran-3-yl)-4-((2-methoxypyrimidin-5-yl)methyl)-2,3,4,5-tetrahydrobenzo[f][1,4]oxazepine], the IC50 is under 0.1 µM.

Molecule `COc1ncc(CN2CCOc3c(Cl)cc(-n4cnc5cc(F)ccc54)cc3C2)cn1` [II-49, 9-chloro-7-(5-fluoro-1H-benzo[d]imidazol-1-yl)-4-((2-methoxypyrimidin-5-yl)methyl)-2,3,4,5-tetrahydrobenzo[f][1,4]oxazepine] returned an IC50 of 0.5 to 1 µM.

Regarding `CS(=O)(=O)Nc1cc(CN2CCOc3c(Cl)cc(-n4ccc5cc(F)ccc54)cc3C2)cnn1` [II-52, N-(5-((9-chloro-7-(5-fluoro-1H-indol-1-yl)-2,3-dihydrobenzo[f][1,4]oxazepin-4(5H)-yl)methyl)pyridazin-3-yl)methanesulfonamide], the 50% inhibitory concentration (IC50) was under 0.1 µM.

`CCOC(=O)c1ncc(CN2CCOc3c(Cl)cc(-n4ccc5c(F)c(F)ccc54)cc3C2)cn1` [II-74, ethyl 5-((9-chloro-7-(4,5-difluoro-1H-indol-1-yl)-2,3-dihydrobenzo[f][1,4]oxazepin-4(5H)-yl)methyl)pyrimidine-2-carboxylate] showed an IC50 of under 0.1 µM.

For the origin of these results see US20260234130A1, “EP2 Antagonist Compounds” (Reservoir Neuroscience, Inc., priority 2022, published 2026).
